Values of other authors, collected in patent publication US12414956B2, “Method for smoking cessation” (CALISTA CAPITAL, LLC, priority 2017, dated 2025).
Like-named read-outs stand apart in the source and are kept apart here.

Tests used:
[1] = after six months, clinical trials
[2] = mean, capsules, adult subjects, plasma

| AUC ([2]; single 300 mg oral dose) | Cmax ([2]; single 300 mg oral dose) | tmax ([2]; single 300 mg oral dose) | AUC ([2]; single 600 mg oral dose) | Cmax ([2]; single 600 mg oral dose) | tmax ([2]; single 600 mg oral dose) | SMILES | success rate [1] |
| --- | --- | --- | --- | --- | --- | --- | --- |
|  |  |  |  |  |  | c1cnc2cc3c(cc2n1)[C@@H]1CNC[C@H]3C1 [CHANTIX, varenicline] | 14% |
| 7050 ng·h/mL | 1600 ng/mL | 2.9 h | 11100 ng·h/mL | 2870 ng/mL | 3.0 h | C=CC1=C(C(=O)O)N2C(=O)[C@@H](NC(=O)/C(=N\O)c3csc(N)n3)[C@H]2SC1 [Cefdinir, cefdinir] |  |
